For 19 compounds, IC50 results are on record in patent US20250353848A1, “HETEROCYCLIC PAD4 INHIBITORS” (Celgene Corporation, priority 2022, published 2025).

The structures appear in SMILES notation. Bounds are passed on as bounds.

The target in the first assay is T1, hPAD4 enzyme (Homo sapiens, UniProt Q9UM07). The assay is described as follows: RFMS Assay 1 (rapid-fire mass spectrum PAD4 inhibition assay, BAEE substrate). It is filed as biochemical. The following applies: 5 nM hPAD4 enzyme, 250 μM BAEE, 30 mins compound and enzyme preincubation at 37° C., 90 min enzyme/substrate reaction. The procedure: Compounds were solubilized in 100% DMSO to achieve a 10 mM compound concentration. Compound stock solutions were stored at RT. A series of dilutions were prepared in DMSO and mixed 8 times with 20 μL mixing volume. Final top concentration of compound in the assay is 50 μM. Final assay conditions were as follows: • Reaction volume: 26 μl • Assay buffer: 25 mM hepes, pH 7.5, 5 mM NaCl, 1 mM DTT, 0.2 mg/ml BSA, 0.01% CHAPS, 50 μM Calcium, and 5 μM TPEN • Final concentrations: 5 nM hPAD4 enzyme, 250 μM BAEE, and 0.5% DMSO • Total incubation time: 30 mins compound and enzyme preincubation at 37° C., 90 min enzyme/substrate reaction, 30 min reaction with phenyl glyoxal at 37° C. • Stop solution: 40 μl 5% TCA in ACN
T1 sequence (Q9UM07 whole entry): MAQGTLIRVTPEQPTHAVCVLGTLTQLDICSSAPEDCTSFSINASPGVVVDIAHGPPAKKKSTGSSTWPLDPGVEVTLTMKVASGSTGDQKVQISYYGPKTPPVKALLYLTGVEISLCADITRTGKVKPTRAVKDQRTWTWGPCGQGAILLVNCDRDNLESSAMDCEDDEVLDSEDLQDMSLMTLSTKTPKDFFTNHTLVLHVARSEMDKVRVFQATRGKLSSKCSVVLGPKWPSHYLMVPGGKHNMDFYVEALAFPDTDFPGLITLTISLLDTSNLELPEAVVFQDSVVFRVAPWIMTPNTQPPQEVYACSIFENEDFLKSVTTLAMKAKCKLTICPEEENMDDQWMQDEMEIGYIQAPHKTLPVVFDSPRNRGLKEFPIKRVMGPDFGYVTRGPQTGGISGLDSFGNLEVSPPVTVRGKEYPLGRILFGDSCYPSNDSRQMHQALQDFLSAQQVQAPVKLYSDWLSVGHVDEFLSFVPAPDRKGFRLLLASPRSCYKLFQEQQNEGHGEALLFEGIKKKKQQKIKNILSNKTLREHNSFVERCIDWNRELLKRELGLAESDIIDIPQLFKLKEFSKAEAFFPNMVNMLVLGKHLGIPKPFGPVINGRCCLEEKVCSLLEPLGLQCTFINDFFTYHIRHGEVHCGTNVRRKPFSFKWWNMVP
0.13 μL of compound solution was added to 13 μL of 10 nM PAD4 in assay buffer. After 30 min 13 μl of 500 μM of BAEE was added in 25 mM hepes, pH 7.5, 5 mM NaCl, 1 mM DTT, 0.2 mg/ml BSA, 0.01% CHAPS, 50 µM Calcium, […] was added and the reaction incubated for 90 min at 37° C. The enzymatic reaction was quenched by addition of 15 μl of 6.1N TCA, 100% Final Concentration is 20%, 35 μl of 8.5 mM phenyl glyoxal (final concentration 4 mM) is then added and the reaction is incubated for 30 min at 37° C.
After 30 minutes the plates are spun down to remove all precipitate. The enzyme reaction was quenched with an equal volume of methanol containing internal standard (modified citrulline). Samples were loaded onto the Rapid Fire RF300 system (Agilent) wherein they were first sipped for 1000 ms and then directly loaded to a C18 separations cartridge using a mixture of acetonitrile containing 0.01% formic acid for 3000 ms desalting. The flow rate of the mobile phase was 1.5 ml/min. Once the samples were eluted from the cartridge, a mobile phase of acetonitrile containing 0.01% formic acid was used to move the samples into the mass spectrometer for 4000 ms at a flow rate of 1.25 ml/min/Sciex AP15500 triple quadrupole mass spectrometer (Applied Biosystems) equipped with ESI was used to analyze the peptidyl citrulline and internal standard ions.
MRM transition of product and internal standard were monitored at m/z 424.5 to 350.4 and m/z 293 to 247 respectively. The dwell time for each transition was set at 200 ms, and the ESI voltage was used at 5500 with a source temperature of 400° C. Extracted ion peaks for each transition were integrated using the Rapid Fire Integrator software. Peak area of analyte was normalized with internal standard.).
For the compound `COCCn1c(-c2nc3cc4c(nc3n2C)CCN(C[C@H](N)CF)C4=O)cc2cccc(OC(F)Cn3ccnc3)c21` (single isomer, unassigned) [Example 77a], the IC50 is 11 to 100 nM. On the same count and under the same terms, next, `Cn1c(-c2cc3cccc(OC(F)Cn4cnc(F)c4)c3n2CC2CC2)nc2cc3c(nc21)CCN(C[C@H](N)CF)C3=O` (single isomer, unassigned) [Example 73b]: not above 10 nM; `Cn1c(-c2cc3cccc(OCC(O)c4cnco4)c3n2CC2CC2)nc2cc3c(nc21)CCN(C[C@H](N)CF)C3=O` (single isomer, unassigned) [Example 61b]: 101 to 500 nM. The same measure, in the same setting: in the case of `Cn1c(-c2cc3cccc(OCC(F)n4ccnc4)c3n2CC2CC2)nc2cc3c(nc21)CCN(C[C@H](N)CF)C3=O` (single isomer, unassigned) [Example 79a] it was 11 to 100 nM. The same measure, in the same setting: in the case of `CC(C(F)Oc1cccc2cc(-c3nc4cc5c(nc4n3C)CCN(C[C@H](N)CF)C5=O)n(CC3CC3)c12)n1ccnc1` (single isomer, unassigned) [Example 78d] it was 11 to 100 nM; in that of `COC(=O)N1CC[C@@H](Oc2cccc3cc(-c4nc5cc6c(nc5n4C)CCN(C[C@H](N)CF)C6=O)n(CC4CC4)c23)C1` [Example 40, methyl (R)-3-((2-(7-((S)-2-amino-3-fluoropropyl)-3-methyl-8-oxo-5,6,7,8-tetrahydro-3H-imidazo[4,5-b][1,6]naphthyridin-2-yl)-1-(cyclopropylmethyl)-1H-indol-7-yl)oxy)pyrrolidine-1-carboxylate], 11 to 100 nM. The compound `C[C@H](Cn1cnc(F)c1)Oc1cccc2cc(-c3nc4cc5c(nc4n3C)CCN(C[C@H](N)CF)C5=O)n(CC3CC3)c12` [Example 67, 7-((S)-2-amino-3-fluoropropyl)-2-(1-(cyclopropylmethyl)-7-(((R)-1-(4-fluoro-1H-imidazol-1-yl)propan-2-yl)oxy)-1H-indol-2-yl)-3-methyl-3,5,6,7-tetrahydro-8H-imidazo[4,5-b][1,6]naphthyridin-8-one] showed an IC50 not above 10 nM.

In the case of `Cn1cc(CCOc2cccc3cc(-c4nc5cc6c(nc5n4C)CCN(C[C@H](N)CF)C6=O)n(CC4CC4)c23)cn1` [Example 51, (S)-7-(2-amino-3-fluoropropyl)-2-(1-(cyclopropylmethyl)-7-(2-(1-methyl-1H-pyrazol-4-yl)ethoxy)-1H-indol-2-yl)-3-methyl-3,5,6,7-tetrahydro-8H-imidazo[4,5-b][1,6]naphthyridin-8-one], the IC50 was not above 10 nM. Same read-out and setting: next, `C[C@@H](COc1cccc2cc(-c3nc4cc5c(nc4n3C)CCN(C[C@H](N)CF)C5=O)n(CC3CC3)c12)n1cnc(C#N)c1` [Example 87, 1-((S)-1-((2-(7-((S)-2-amino-3-fluoropropyl)-3-methyl-8-oxo-5,6,7,8-tetrahydro-3H-imidazo[4,5-b][1,6]naphthyridin-2-yl)-1-(cyclopropylmethyl)-1H-indol-7-yl)oxy)propan-2-yl)-1H-imidazole-4-carbonitrile]: 11 to 100 nM; `COc1cccc2cc(-c3nc4cc5c(nc4n3C)CCN(C[C@@H](C)N)C5=O)n(Cc3ncco3)c12` [Example 25, (R)-7-(2-aminopropyl)-2-(7-methoxy-1-(oxazol-2-ylmethyl)-1H-indol-2-yI)-3-methyl-3,5,6,7-tetrahydro-8H-imidazo[4,5-b][1,6]naphthyridin-8-one]: 101 to 500 nM.

As for `C[C@H](COc1nccc2cc(-c3nc4cc5c(nc4n3C)CCN(C[C@H](N)CF)C5=O)n(CC3CC3)c12)n1cnc(F)c1` [Example 83, 7-((S)-2-amino-3-fluoropropyl)-2-(1-(cyclopropylmethyl)-7-((R)-2-(4-fluoro-1H-imidazol-1-yl)propoxy)-1H-pyrrolo[2,3-c]pyridin-2-yl)-3-methyl-3,5,6,7-tetrahydro-8H-imidazo[4,5-b][1,6]naphthyridin-8-one], the concentration for half-maximal inhibition (IC50) is not above 10 nM.

The compound `C[C@@H](Cn1cncc1F)Oc1cccc2cc(-c3nc4cc5c(nc4n3C)CCN(C[C@H](N)CF)C5=O)n(CC3CC3)c12` [Example 68, 7-((S)-2-amino-3-fluoropropyl)-2-(1-(cyclopropylmethyl)-7-(((S)-1-(5-fluoro-1H-imidazol-1-yl)propan-2-yl)oxy)-1H-indol-2-yl)-3-methyl-3,5,6,7-tetrahydro-8H-imidazo[4,5-b][1,6]naphthyridin-8-one] had a half-maximal inhibitory concentration (IC50) of 101 to 500 nM.

For the next assay, the target named is T1, hPAD4 enzyme. Put plainly: RFMS Assay 2 (rapid-fire mass spectrum PAD4 inhibition assay, peptide substrate). Type of assay: biochemical. Conditions: 35 nM recombinant human PAD4, substrate TSTGGRQGSHH, room temperature for 30 minutes; read-out: human PAD4 (hPAD4) IC50, RFMS Assay 2. The procedure:
Stock compounds were dissolved and stored in 100% DMSO. Compound solutions were prepared via serial dilution at 3-fold intervals in DMSO with top compound concentration at […] in each assay. 0.25 μl of compound solution was transferred from the compound plate to the assay plate by using an acoustic dispenser. Final assay conditions: • Total reaction volume: 25 μl • Assay buffer: […] pH 7.4, 200 mM NaCl, 2 mM CaCl2, 5 mM DTT • 35 nM recombinant human PAD4 • 500 µM TSTGGRQGSHH (SEQ ID NO: 1) • 1.2% DMSO • Stop solution: 10% formic acid
Reaction mixtures were incubated at room temperature for 30 minutes. 10 μl each of the reaction mixtures was then mixed with 40 μl of 10% formic acid in a microtiter plate. The plate was frozen at −80° C. before shipping out on dry ice for RapidFire mass spectroscopy analysis.
Thawed samples were loaded onto the Rapid Fire 300 system (Agilent) wherein they were first sipped for 250 ms and then loaded onto a Agilent “C” (C18) cartridge using a mobile phase of water containing 0.09% formic acid/0.01% trifluoroacetic acid for 3000 ms desalting flowing at a rate of 1.5 ml/min. Once the samples were loaded and washed, a mobile phase of acetonitrile containing 0.09% formic acid/0.01% trifluoroacetic acid was used to elute the samples directly onto a Sciex API4000 triple quadrupole mass spectrometer for 3000 ms at a flow rate of 1.25 ml/min.
MRM transitions for substrate and product were monitored in positive ESI mode at m/z=562.3/969.7 and m/z=562.8/541.3 respectively. The dwell time for each transition was set at 100 ms, and the ESI voltage was used at 5500 with a source temperature of 650° C. Extracted ion peaks for each transition were integrated using the Rapid Fire Integrator software.
Regarding `COc1cccc2cc(-c3nc4cc5c(nc4n3C)CCN(C[C@H](N)CF)C5=O)n(Cc3nc(C)co3)c12` [Example 13, (S)-7-(2-amino-3-fluoropropyl)-2-(7-methoxy-1-((4-methyloxazol-2-yl)methyl)-1H-indol-2-yl)-3-methyl-3,5,6,7-tetrahydro-8H-imidazo[4,5-b][1,6]naphthyridin-8-one], the IC50 was in the range of 501 to 1000 nM. Still for that read-out and setting: in the case of `Cn1c(-c2cc3cccc(OCC4CC(=O)NC4(C)C)c3n2CC2CC2)nc2cc3c(nc21)CCN(C[C@H](N)CF)C3=O` (stereo partly drawn) [Example 35, 7-((S)-2-amino-3-fluoropropyl)-2-(1-(cyclopropylmethyl)-7-((2,2-dimethyl-5-oxopyrrolidin-3-yl)methoxy)-1H-indol-2-yl)-3-methyl-3,5,6,7-tetrahydro-8H-imidazo[4,5-b][1,6]naphthyridin-8-one] it was 501 to 1000 nM; in that of `COc1ccc2cc(-c3nc4cc5c(nc4n3C)CCN(C[C@H](N)CF)C5=O)n(CC3CC3)c2c1` [Example 18, (S)-7-(2-amino-3-fluoropropyl)-2-(1-(cyclopropylmethyl)-6-methoxy-1H-indol-2-yl)-3-methyl-3,5,6,7-tetrahydro-8H-imidazo[4,5-b][1,6]naphthyridin-8-one], 501 to 1000 nM; in that of `CC(Cc1cnco1)Oc1cc(F)cc2cc(-c3nc4cc5c(nc4n3C)CCN(C[C@H](N)CF)C5=O)n(CC3CC3)c12` (single isomer, unassigned) [Example 64], 101 to 500 nM. Same read-out and setting: in the case of `Cc1cccc2cc(-c3nc4cc5c(nc4n3C)CCN(C[C@H](N)CF)C5=O)n(Cc3ccno3)c12` [Example 17, (S)-7-(2-amino-3-fluoropropyl)-2-(1-(isoxazol-5-ylmethyl)-7-methyl-1H-indol-2-yl)-3-methyl-3,5,6,7-tetrahydro-8H-imidazo[4,5-b][1,6]naphthyridin-8-one] it was 501 to 1000 nM; in that of `COc1cccc2cc(-c3nc4cc5c(nc4n3C)CCN(C[C@H](N)CF)C5=O)n(Cc3ncc(C)s3)c12` [Example 10, (S)-7-(2-amino-3-fluoropropyl)-2-(7-methoxy-1-((5-methylthiazol-2-yl)methyl)-1H-indol-2-yl)-3-methyl-3,5,6,7-tetrahydro-8H-imidazo[4,5-b][1,6]naphthyridin-8-one], more than 1000 nM. On to `Cn1c(-c2cc3cccc(OC[C@H]4CNC(=O)C4)c3n2CC2CC2)nc2cc3c(nc21)CCN(C[C@H](N)CF)C3=O` [Example 60, 7-((S)-2-amino-3-fluoropropyl)-2-(1-(cyclopropylmethyl)-7-(((R)-5-oxopyrrolidin-3-yl)methoxy)-1H-indol-2-yl)-3-methyl-3,5,6,7-tetrahydro-8H-imidazo[4,5-b][1,6]naphthyridin-8-one], for which the IC50 was in the range of 101 to 500 nM.
